Source: patent US4351763A, “Pharmacologically active peptides” (Eli Lilly and Company, priority 1981, dated 1982)
Where a SMILES comes first, the peptide text is derived from it. [ ]: non-standard residue; d: D form. Phe(4-F) = N[C@@H](Cc1ccc(F)cc1)C(=O)O; NMeM = CN[C@@H](CCSC)C(=O)O

Test system: mouse
Assay: mouse hot plate test (analgesic activity)
Type: in vivo
Details: hot plate 52° C., 15 minutes after administration, latency until jump
Method: In this test, a mouse is placed inside an upright acrylic cylinder comprising, as its base, a hot plate surface which is maintained at 52° C. The mouse is given, orally or by subcutaneous injection, a predetermined amount of test compound dissolved or suspended in a suitable carrier, and, 15 minutes after administration of the test compound, the mouse is placed on the hot plate surface. The latency in seconds until the mouse jumps from the hot plate surface is measured. […] This must occur in a dose range which produces no motor incoordination or incapacitation. The following Table records the ED50 results obtained from this test.

| Compound | Analgesic Activity, Hot Plate Test ED50, mg./kg., subcutaneous [mg/kg] |
| --- | --- |
| CSCC[C@@H](C(N)=O)N(C)C(=O)[C@H](Cc1ccc(F)cc1)NC(=O)CNC(=O)[C@H](NC(=O)[C@@H](N)Cc1ccc(O)cc1)[C@H](C)O [Example 4, L-Tyrosyl-D-threonylglycyl-L-p-fluorophenylalanyl-L-(N^α -methyl)methioninamide] (H-Y[dT]G[Phe(4-F)][NMeM]-NH2) | 0.088 |
| CSCC[C@@H](C(N)=O)N(C)C(=O)[C@H](Cc1ccc(F)cc1)NC(=O)CNC(=O)[C@@H](C)NC(=O)[C@@H](N)Cc1ccc(O)cc1 [Example 1, L-Tyrosyl-D-alanylglycyl-L-p-fluorophenylalanyl-L-(N^α -methyl)methioninamide] | 0.023 |
| COc1ccc([C@H](NC(=O)[C@H](Cc2ccc(F)cc2)NC(=O)CNC(=O)[C@@H](C)NC(=O)[C@@H](N)Cc2ccc(O)cc2)C(N)=O)cc1 [Example 2, L-Tyrosyl-D-alanylglycyl-L-p-fluorophenylalanyl-L-p-methoxyphenylglycinamide] | 1.04 |
| C[C@@H](NC(=O)[C@@H](N)Cc1ccc(O)cc1)C(=O)NCC(=O)N[C@@H](Cc1ccc(F)cc1)C(=O)N[C@H](C(N)=O)c1ccccc1 [Example 3 L-Pgl, L-Tyrosyl-D-alanyl-glycyl-L-p-fluorophenylalanyl-L-phenylglycinamide] | 0.063 |
| C[C@@H](NC(=O)[C@@H](N)Cc1ccc(O)cc1)C(=O)NCC(=O)N[C@@H](Cc1ccc(F)cc1)C(=O)N[C@@H](C(N)=O)c1ccccc1 [Example 3 D-Pgl, L-Tyrosyl-D-alanyl-glycyl-L-p-fluorophenylalanyl-D-phenylglycinamide] | 0.103 |
